# According to patent US8309550B2, “Kinase inhibitors and their use as pharmaceutical agents” (Shanghai Genomics, Inc., priority 2011, dated 2012):
# Where two headings read alike, the source gives them in different places.
# Experiments:
# Molt-4-luc = experiment: 72 h MTT cytotoxicity assay Molt-4-luc; type: cell-based; details: Homo sapiens
# Source text: (§1) MIT cytotoxicity assay. The compounds of the invention were subjected to a standard cellular proliferation assay using human cell lines. HeLa cells (Human cervix adenocarcinoma cell line, ATCC NO, CCL-2); A549 cells (Human lung carcinoma cells line, ATCC NO, CCL-185); U2OS cells (Human osteosarcoma cell line, ATCC NO, HTB-96); Eca-109 cells (Human esophageal carcinoma cell line); HepG2 (Human hepatocellular liver carcinoma cell line, ATCC NO, HB-8065); K562 cells (Human chronic myelogenous leukemia cell line, ATCC NO, CCL-243); SK-MEL-28 (Human malignant melanoma cell line, ATCC NO, HTB-72); Molt-4 (Human acute lymphoblastic leukemia cell line, ATCC NO, CRL-1582); H460 (Human large cell lung cancer cell line, ATCC NO, HTB-177); MDA-MB-231 (Human breast adenocarcinoma cell line, ATCC NO, HTB-26); MCF7 (Human breast adenocarcinoma cell line, ATCC NO, HTB-22); ACHN (Human renal cell adenocarcinoma cell line, ATCC NO, CRL-1611); PC-3M (Human prostate adenocarcinoma cell line, ATCC NO CRL-1435); HL60 (Human acute promyelocytic leukemia cell line, ATCC NO, CCL-240); THP-1 (Human acute monocytic leukemia, ATCC NO, TIB-202); Jurkat (Human acute T cell leukemia cell line, ATCC NO, CRL-2063); HCT-116 (Human colorectal carcinoma cell line, ATCC NO, CCL-247); HT-29 (Human colorectal adenocarcinoma cell line, ATCC NO, HTB-38™); WI-38 (Human normal lung cell line, ATCC NO, CCL-75); MRC-5 (Human normal lung cell line, ATCC NO, CCL-171).
# (§2) HepG2, MDA-MB-231, WI-38 and MRC-5 cells were obtained from Shanghai Institute of Cell Biology, Chinese Academy of Sciences (Shanghai 200031, China). A549, HeLa, K562, MCF7, ACHN, H460, U2OS, Eca-109, MCF7, HL60, THP-1, Jurkat, HCT-116, HT-29, PC-3M, SK-MEL-28, Molt-4, H460 and […] cells were purchased from ATCC (American Type Culture Collection, USA).
# (§3) Standard 72 h MTT (thiazolye blue; 3-[4,5-dimethylthiazol-2-yl]-2,5-diphenyltetrazolium bromide) assays were performed. Briefly, the cell lines used in this study were recovered and cultured according to the conditions recommended. 4000 cells per well were seeded into 96-well plates according to doubling time and incubated overnight at 37° C. Compounds were prepared in DMSO and a ½ dilution series in 100 μl cell culture media, added to cells (in duplicates) with the final DMSO concentration of 0.025%, and incubated for 72 hrs at 37° C. MTT solution (5 mg/ml) was added at 10 μl per well and incubated in the dark at 37° C. for 4 hr. Culture medium and MTT solution was removed. MTT dye was solubilised with 100 μl per well of DMSO with agitation. Absorbance was read at 562 nm and data analyzed using Sigmoid curve-fitting software Origin 6.0 (MicroCal, LLC, USA) to determine IC50 value.
# PC-3M-luc = experiment: 72 h MTT cell viability PC-3M-luc; type: cell-based; details: Homo sapiens
# Source text: as §1, §2, §3
# HepG2 = experiment: 72 h MTT cytotoxicity assay HepG2; type: cell-based; details: Homo sapiens; HepG2, 72 hrs
# Source text: as §1, §2, §3
# MRC-5 = experiment: 72 h MTT cell viability MRC-5 (normal lung); type: cell-based; details: Homo sapiens, MRC5
# Source text: as §1, §2, §3
# WI-38 = experiment: 72 h MTT cell viability WI-38 (normal lung); type: cell-based; details: Homo sapiens; WI-38, normal lung cell line
# Source text: as §1, §2, §3
# SRC = SRC (Homo sapiens, UniProt P12931); experiment: Kinase assay SRC (Table III); details: read-out: Target biochemical activity IC50 SRC
# Chain of SRC (P12931 whole entry, species assumed): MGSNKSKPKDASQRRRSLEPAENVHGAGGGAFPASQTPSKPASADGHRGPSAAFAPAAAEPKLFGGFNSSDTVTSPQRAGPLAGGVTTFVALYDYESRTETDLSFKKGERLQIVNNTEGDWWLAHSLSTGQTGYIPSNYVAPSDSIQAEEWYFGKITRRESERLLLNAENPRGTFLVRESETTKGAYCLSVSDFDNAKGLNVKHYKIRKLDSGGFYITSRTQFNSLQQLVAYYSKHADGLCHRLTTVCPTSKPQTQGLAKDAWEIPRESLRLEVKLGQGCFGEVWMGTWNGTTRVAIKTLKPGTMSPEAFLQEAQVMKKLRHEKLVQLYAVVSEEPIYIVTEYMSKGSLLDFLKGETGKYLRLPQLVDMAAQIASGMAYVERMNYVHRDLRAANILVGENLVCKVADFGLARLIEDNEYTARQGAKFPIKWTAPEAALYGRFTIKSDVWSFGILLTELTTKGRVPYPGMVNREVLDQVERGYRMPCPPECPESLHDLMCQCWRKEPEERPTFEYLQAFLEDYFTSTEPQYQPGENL
# Method: (§4) Kinase assays. The compounds were tested for their ability to inhibit kinases.
# CDK9 = CDK9 (Homo sapiens, UniProt P50750); experiment: CDK9 inhibitory activity, kinase assays (Table III); details: read-out: Target biochemical activity IC50 CDK9
# Chain of CDK9 (P50750 whole entry, species assumed): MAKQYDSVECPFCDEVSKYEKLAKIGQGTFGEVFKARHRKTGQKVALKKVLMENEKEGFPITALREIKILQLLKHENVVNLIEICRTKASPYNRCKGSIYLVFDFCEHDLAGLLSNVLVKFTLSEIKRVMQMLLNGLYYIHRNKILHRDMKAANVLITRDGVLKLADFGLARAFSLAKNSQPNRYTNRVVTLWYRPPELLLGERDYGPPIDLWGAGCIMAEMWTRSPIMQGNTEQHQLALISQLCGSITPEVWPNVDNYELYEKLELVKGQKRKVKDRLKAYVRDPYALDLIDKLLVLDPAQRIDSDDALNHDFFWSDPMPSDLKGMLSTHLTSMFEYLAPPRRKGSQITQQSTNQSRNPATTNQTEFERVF
# Chain of CDK9 (O60563 whole entry partner, species assumed): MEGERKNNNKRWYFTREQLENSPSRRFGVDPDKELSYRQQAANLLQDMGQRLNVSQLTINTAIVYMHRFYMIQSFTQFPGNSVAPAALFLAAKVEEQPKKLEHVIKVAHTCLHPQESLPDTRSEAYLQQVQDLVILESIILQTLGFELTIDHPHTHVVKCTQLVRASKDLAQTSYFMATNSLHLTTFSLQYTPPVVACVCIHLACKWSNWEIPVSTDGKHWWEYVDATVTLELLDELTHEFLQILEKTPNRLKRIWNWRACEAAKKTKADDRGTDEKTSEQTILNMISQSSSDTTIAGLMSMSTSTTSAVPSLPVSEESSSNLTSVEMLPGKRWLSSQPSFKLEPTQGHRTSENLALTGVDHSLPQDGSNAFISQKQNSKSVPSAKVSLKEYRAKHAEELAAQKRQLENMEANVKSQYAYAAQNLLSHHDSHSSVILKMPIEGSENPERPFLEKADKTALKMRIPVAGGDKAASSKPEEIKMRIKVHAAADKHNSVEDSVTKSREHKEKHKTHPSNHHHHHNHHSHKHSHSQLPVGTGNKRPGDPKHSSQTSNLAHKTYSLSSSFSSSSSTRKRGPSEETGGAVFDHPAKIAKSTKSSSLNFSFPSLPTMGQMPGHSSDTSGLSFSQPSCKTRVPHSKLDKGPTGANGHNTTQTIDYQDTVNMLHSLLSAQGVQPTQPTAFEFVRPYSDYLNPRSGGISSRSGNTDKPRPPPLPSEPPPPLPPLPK
# Method: as §4
# CDK7 = CDK7 (Homo sapiens, UniProt P50613); experiment: Kinase assay CDK7 (Table III); details: read-out: Target biochemical activity IC50 CDK7
# Chain of CDK7 (P50613 whole entry, species assumed): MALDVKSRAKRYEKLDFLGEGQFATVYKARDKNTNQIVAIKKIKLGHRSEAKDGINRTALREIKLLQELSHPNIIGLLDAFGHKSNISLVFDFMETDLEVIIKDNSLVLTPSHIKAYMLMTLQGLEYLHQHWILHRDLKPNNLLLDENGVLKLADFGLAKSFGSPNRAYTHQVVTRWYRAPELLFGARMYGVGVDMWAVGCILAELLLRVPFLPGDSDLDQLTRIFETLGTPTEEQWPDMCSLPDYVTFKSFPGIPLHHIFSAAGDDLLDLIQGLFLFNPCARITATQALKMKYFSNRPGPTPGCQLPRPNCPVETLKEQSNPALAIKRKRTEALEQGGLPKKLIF
# Chain of CDK7 (P51946 whole entry partner, species assumed): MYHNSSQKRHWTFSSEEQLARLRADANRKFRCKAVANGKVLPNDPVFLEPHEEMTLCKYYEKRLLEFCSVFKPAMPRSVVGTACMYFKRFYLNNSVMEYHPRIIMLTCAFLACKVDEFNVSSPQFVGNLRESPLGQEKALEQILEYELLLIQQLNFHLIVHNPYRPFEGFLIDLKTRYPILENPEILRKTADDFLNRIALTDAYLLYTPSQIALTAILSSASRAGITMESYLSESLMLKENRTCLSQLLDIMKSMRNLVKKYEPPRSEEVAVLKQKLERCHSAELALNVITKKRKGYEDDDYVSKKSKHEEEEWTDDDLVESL
# Chain of CDK7 (P51948 whole entry partner, species assumed): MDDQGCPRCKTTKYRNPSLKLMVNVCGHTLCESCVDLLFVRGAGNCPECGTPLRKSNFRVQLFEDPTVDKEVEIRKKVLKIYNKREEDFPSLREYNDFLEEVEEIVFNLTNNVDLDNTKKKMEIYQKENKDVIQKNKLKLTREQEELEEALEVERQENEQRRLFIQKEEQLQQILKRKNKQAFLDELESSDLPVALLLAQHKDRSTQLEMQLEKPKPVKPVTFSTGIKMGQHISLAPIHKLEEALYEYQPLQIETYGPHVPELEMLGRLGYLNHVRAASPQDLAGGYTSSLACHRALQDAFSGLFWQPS
# Method: as §4
# TSSK1 = target: T1, TSSK1 (Homo sapiens, UniProt Q9BXA7); experiment: Kinase assay TSSK1 (Table III); details: read-out: Target biochemical activity IC50 TSSK1
# T1 sequence (Q9BXA7 1-367): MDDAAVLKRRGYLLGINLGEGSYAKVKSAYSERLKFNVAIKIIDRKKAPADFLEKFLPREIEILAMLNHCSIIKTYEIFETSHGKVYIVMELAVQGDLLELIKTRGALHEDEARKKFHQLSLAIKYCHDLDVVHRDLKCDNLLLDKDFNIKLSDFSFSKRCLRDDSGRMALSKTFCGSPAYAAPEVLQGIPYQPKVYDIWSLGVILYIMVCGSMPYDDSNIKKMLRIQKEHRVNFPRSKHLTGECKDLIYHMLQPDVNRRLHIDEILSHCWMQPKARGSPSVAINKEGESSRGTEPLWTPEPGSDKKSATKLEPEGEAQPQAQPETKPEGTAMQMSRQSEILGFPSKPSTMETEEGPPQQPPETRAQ
# Method: as §4
# lung carcinoma (H460) = experiment: Inhibition of tumor growth, NCI-H460 in SCID-bg mice; type: in vivo; details: oral once a day
# Method: Tumor type: lung carcinoma (H460)
# Treatment: Single PO dose for 21 days (starting at day 7 following tumor inoculation)
# Endpoint: tumor volume and mean luciferase activity by Xenogen (Caliper) machine:
# SCID-bg mice were implanted with NCI-H460 cells at 5×10^6 cells/mouse on Day 0. Compound 18 treatment began on Day 7. […] In model group, the vehicle was used instead of compound 18. Tumor volume and mean luciferase activity by Xenogen technology were measured once per there days.
# [1] = MRC-5, normal lung cell line, read-out: Cell Viability IC50 MRC-5
# [2] = MRC-5, Table III, read-out: Cellular effect in mammalian cells IC50 MRC-5
IC50 (PC-3M-luc),IC50 (SRC),IC50 (CDK9),IC50 (CDK7),IC50 (TSSK1),Compound,IC50 (Molt-4-luc),IC50 (HepG2),IC50 (MRC-5; [1]),IC50 (WI-38),% Tumor Growth Inhibition at Day 21 (lung carcinoma (H460); 20 mg/kg),% Tumor Growth Inhibition at Day 21 (lung carcinoma (H460); 150 mg/kg),IC50 (MRC-5; [2])
–,> 10 µM,0.041 µM,> 10 µM,> 10 µM,CCCn1cc(-c2ccnc(Nc3cccc(S(N)(=O)=O)c3)n2)c2nc(Cl)cc(C)c21 [SG53],–,–,–,–,–,–,–
–,3.93 µM,0.0004 µM,1.95 µM,> 10 µM,CCCn1cc(-c2ccnc(Nc3ccc(C)c(S(=O)(=O)N4CCOCC4)c3)n2)c2ccncc21 [SG52],–,–,–,–,–,–,1.63 µM
–,0.2 µM,0.0006 µM,0.043 µM,0.0016 µM,CCCn1cc(-c2ccnc(Nc3cccc(S(N)(=O)=O)c3)n2)c2ccncc21 [SG51],–,–,–,–,–,–,–
–,> 10 µM,0.057 µM,> 10 µM,> 10 µM,CCCn1cc(-c2ccnc(Nc3ccc(S(N)(=O)=O)cc3)n2)c2nc(Cl)cc(C)c21 [SG54],–,–,–,–,–,–,3.97 µM

# The next lines start with the compound.
Compound,IC50 (PC-3M-luc),IC50 (SRC),IC50 (CDK9),IC50 (CDK7),IC50 (TSSK1),IC50 (Molt-4-luc),IC50 (HepG2),IC50 (MRC-5; [1]),IC50 (WI-38),% Tumor Growth Inhibition at Day 21 (lung carcinoma (H460); 20 mg/kg),% Tumor Growth Inhibition at Day 21 (lung carcinoma (H460); 150 mg/kg),IC50 (MRC-5; [2])
"CCCn1cc(-c2ccnc(Nc3ccc(C)c(S(=O)(=O)N4CCOCC4)c3)n2)c2ccncc21 [Compound 102, N-(4-Methyl-3-(morpholinosulfonyl)phenyl)-4-(1-propyl-1H-pyrrolo[2,3-c]pyridin-3-yl)pyrimidin-2-amine]",1.13 µM,–,–,–,–,0.23 µM,0.5 µM,–,–,–,–,–
"CCCn1cc(-c2ccnc(Nc3cccc(S(N)(=O)=O)c3)n2)c2ccncc21 [Compound 111, 3-(4-(1-Propyl-1H-pyrrolo[2,3-c]pyridin-3-yl)pyrimidin-2-ylamino)benzenesulfonamide]",0.006 µM,–,–,–,–,0.01 µM,0.58 µM,0.06 µM,–,–,–,–
"CCCn1cc(-c2ccnc(Nc3cccc(S(N)(=O)=O)c3)n2)c2ccnc(Cl)c21 [Compound 96, 3-(4-(7-chloro-1-propyl-1H-pyrrolo[2,3-c]pyridin-3-yl)pyrimidin-2-ylamino)benzenesulfonamide]",0.48 µM,–,–,–,–,0.22 µM,0.25 µM,0.89 µM,> 10 µM,–,–,–
"CCn1cc(-c2ccnc(Nc3cccc(S(N)(=O)=O)c3)n2)c2cccnc21 [Compound 18, 3-(4-(1-Ethyl-1H-pyrrolo[2,3-b]pyridin-3-yl)pyrimidin-2-ylamino)benzenesulfonamide]",3.55 µM,1.05 µM,0.013 µM,0.146 µM,–,1.05 µM,0.68 µM,13.3 µM,11.1 µM,41.3%,56.5%,–
"CCCn1cc(-c2ccnc(Nc3cccc(O)c3)n2)c2cccnc21 [Compound 16, 3-(4-(1-Propyl-1H-pyrrolo[2,3-b]pyridin-3-yl)pyrimidin-2-ylamino)phenol]",5.11 µM,–,–,–,–,3.82 µM,1.6 µM,–,> 10 µM,–,–,–
"CCCn1cc(-c2ccnc(Nc3ccc(O)cc3)n2)c2cccnc21 [Compound 15, 4-(4-(1-Propyl-1H-pyrrolo[2,3-b]pyridin-3-yl)pyrimidin-2-ylamino)phenol]",10.5 µM,–,–,–,–,2.46 µM,1.16 µM,–,> 10 µM,–,–,–
"CCCn1cc(-c2ccnc(Nc3ccc(C)c(S(=O)(=O)N4CCOCC4)c3)n2)c2cccnc21 [Compound 24, N-(4-Methyl-3-(morpholinosulfonyl)phenyl)-4-(1-propyl-1H-pyrrolo[2,3-b]pyridin-3-yl)pyrimidin-2-amine]",5.02 µM,–,–,–,–,4.51 µM,1.32 µM,3.88 µM,> 10 µM,–,–,–
"CCCn1cc(-c2ccnc(Nc3ccc(S(N)(=O)=O)cc3)n2)c2ccncc21 [Compound 112, 4-(4-(1-Propyl-1H-pyrrolo[2,3-c]pyridin-3-yl)pyrimidin-2-ylamino)benzenesulfonamide]",0.027 µM,–,–,–,–,0.02 µM,0.47 µM,> 10 µM,> 10 µM,–,–,–
"CCn1cc(-c2ccnc(Nc3cccc(C#N)c3)n2)c2cccnc21 [Compound 20, 3-(4-(1-Ethyl-1H-pyrrolo[2,3-b]pyridin-3-yl)pyrimidin-2-ylamino)benzonitrile]",> 10 µM,–,–,–,–,3.43 µM,1.81 µM,15.1 µM,–,–,–,–
"CCCn1cc(-c2ccnc(Nc3cccc(S(N)(=O)=O)c3)n2)c2nc(Cl)cc(C)c21 [Compound 42, 3-(4-(5-Chloro-7-methyl-1-propyl-1H-pyrrolo[3,2-b]pyridin-3-yl)pyrimidin-2-ylamino)benzenesulfonamide]",4.06 µM,–,–,–,–,4.79 µM,0.55 µM,14.6 µM,–,–,–,–
"CCCn1cc(-c2ccnc(Nc3cccc(S(N)(=O)=O)c3)n2)c2cccnc21 [Compound 22, 3-(4-(1-Propyl-1H-pyrrolo[2,3-b]pyridin-3-yl)pyrimidin-2-ylamino)benzenesulfonamide]",3.19 µM,–,–,–,–,2.45 µM,0.7 µM,5.17 µM,–,–,–,–
